Patent publication US20250025466A1, “New oral pharmaceutical composition and dose regimen for the therapy of progressive fibrosing interstitial lung diseases” (Boehringer Ingelheim International GmbH, priority 2021, published 2025)
Marks after values point to notes of the source that are not given here.

How the values were obtained:
sponge implant model = details: subcutaneous or intraperitoneal implant; cited from earlier work
[1] = system: renal interstitial fibrosis; details: mouse, in vivo; cited from earlier work
hepatic stellate cells = details: cited from earlier work
[2] = system: trinitrobenzene sulfonic acid-induced colitis; details: rat, in vivo; cited from earlier work
cecal abrasion model = details: mouse, in vivo; cited from earlier work
skin fibrosis = details: induced by bleomycin or topoisomerase I and chronic graft-versus-host disease; cited from earlier work
[3] = system: bleomycin-induced fibrosis; details: administered from the beginning of bleomycin challenge; cited from earlier work
[4] = system: A549 human alveolar epithelial cell line; details: TGF-β1-stimulated; cited from earlier work
[5] = system: mouse primary tubular epithelial cells; details: cited from earlier work
[6] = system: human fetal lung fibroblasts (HFL-1); details: cited from earlier work
[7] = system: bile duct ligation-induced hepatic fibrosis; details: rat, in vivo; cited from earlier work
bleomycin mice [8] = details: mouse, in vivo; cited from earlier work
patients with IPF [9] = details: IPF with mild or moderate impairment of FVC (≥50% predicted); cited from earlier work
patients with IPF [10] = details: in vivo; cited from earlier work
tuberculosis model = details: rabbit, in vivo; cited from earlier work
IPF patients [11] = assay: Phase II clinical trial in IPF patients: disposition / premature discontinuation; format: in vivo, human; details: 18 mg b.i.d.
Protocol: The participants were divided into 2 groups by chance (the “active agent group” and the “placebo group”). […] One 12 mg placebo tablet and one 6 mg placebo tablet (both containing no active ingredient, see Table 1) was administered orally to the patients of the second group twice daily (b.i.d.).
The “active agent group” and the “placebo group” were further distributed to two different groups regarding background medication: the “AF-group” (“antifibrotic background medication group”) and the “Non-AF-group” (“no antifibrotic background medication group”). […] The combination of both nintedanib and pirfenidone as background medication was not allowed in the “AF-group”.
The trial was a randomised, double-blind, placebo-controlled parallel group study.

PDE4 B subtype = PDE4 B subtype (Homo sapiens, UniProt Q07343); details: disclosed in WO 2013/026797; cited from earlier work
PDE4 B subtype, sequence (Q07343 whole entry): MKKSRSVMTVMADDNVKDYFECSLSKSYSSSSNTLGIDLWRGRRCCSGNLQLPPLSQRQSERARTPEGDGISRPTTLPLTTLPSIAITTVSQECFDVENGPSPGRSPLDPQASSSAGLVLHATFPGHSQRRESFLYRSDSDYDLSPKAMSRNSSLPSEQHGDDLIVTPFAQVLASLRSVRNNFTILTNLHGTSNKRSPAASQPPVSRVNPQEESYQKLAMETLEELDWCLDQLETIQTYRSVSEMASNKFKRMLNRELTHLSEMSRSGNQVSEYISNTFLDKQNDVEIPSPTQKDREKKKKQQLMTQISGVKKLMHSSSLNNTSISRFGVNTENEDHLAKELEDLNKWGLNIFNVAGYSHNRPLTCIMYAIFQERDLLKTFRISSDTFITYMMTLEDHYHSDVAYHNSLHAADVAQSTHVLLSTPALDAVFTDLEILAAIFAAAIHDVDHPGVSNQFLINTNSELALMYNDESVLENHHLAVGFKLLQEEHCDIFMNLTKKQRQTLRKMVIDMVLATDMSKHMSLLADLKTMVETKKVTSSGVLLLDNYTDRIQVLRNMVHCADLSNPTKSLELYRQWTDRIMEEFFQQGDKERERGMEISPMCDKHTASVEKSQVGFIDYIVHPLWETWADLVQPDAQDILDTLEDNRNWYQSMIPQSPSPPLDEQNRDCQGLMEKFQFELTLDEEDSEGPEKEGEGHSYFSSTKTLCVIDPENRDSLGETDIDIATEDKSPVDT

IPF patients [12] = assay: Phase II clinical trial in IPF patients: Treatment Emergent Adverse Events
human lung fibroblasts = details: combination with nintedanib; WO2019/081235; cited from earlier work
IPF patients [13] = details: male, human, in vivo, 13 weeks
[14] = system: bleomycin-induced fibrosis; details: cited from earlier work
bleomycin mice [15] = details: mouse, in vivo; cited from earlier work; remark: listed apart in the source
[16] = system: diethylnitrosamine-induced liver fibrosis; details: rat, in vivo; cited from earlier work
[17] = system: normal human lung fibroblasts (NHLFs); details: in the presence of indacaterol; cited from earlier work
[18] = system: human lung fibroblast model (WI-38); details: in the presence of forskolin; cited from earlier work
[19] = system: chronic graft-versus-host disease; details: cited from earlier work
[20] = system: type II alveolar epithelial cells; details: cited from earlier work
[21] = system: dextran sulfate sodium-induced colitis ulcerosa; details: mouse, in vivo; cited from earlier work
[22] = system: normal human lung fibroblasts (NHLFs); details: in the presence of PGE2; cited from earlier work
[23] = system: normal human lung fibroblasts (NHLFs); details: cited from earlier work
[24] = system: human fetal lung fibroblast strain (GM06114); details: in the presence of PGE2; cited from earlier work
[25] = system: normal human lung fibroblasts (NHLFs); details: stimulated by bleomycin or 8-epi-PGF2α; cited from earlier work
[26] = AF-group nintedanib background, 18 mg b.i.d.
[27] = AF-group pirfenidone background, 18 mg b.i.d.
[28] = Total (Non-AF + AF), 18 mg b.i.d.

COc1ccc(C2CNC(=O)C2)cc1OC1CCCC1 (stereo not shown) [rolipram]
Intra-implant collagen and TGF-β1 deposition (sponge implant model): inhibiting intra-implant collagen and TGF-β1 deposition | Renal interstitial fibrosis [1]: inhibit renal interstitial fibrosis | mRNA expression of α-SMA and Col1A2 (hepatic stellate cells): inhibited mRNA expression of α-SMA and Col1A2 | Collagen and TGF-β1 in colonic tissue [2]: inhibited collagen and TGF-β1 | Fibrotic reactions (cecal abrasion model): inhibited fibrotic reactions | Skin fibrosis (skin fibrosis): inhibited | Fibrotic score, hydroxyproline content, serum TNF-α [3]: inhibit fibrotic score, hydroxyproline content, and serum tumor necrosis factor-α (TNF-α) | Epithelial-mesenchymal transition changes [4]: inhibited epithelial-mesenchymal transition changes like FN and collagen mRNA expression, although not α-SMA mRNA | TGF-β-induced damage, FN expression, deficiency of mitochondrial biogenesis [5]: inhibited TGF-β-induced damage, FN expression, and deficiency of mitochondrial biogenesis | FN-induced chemotaxis and contraction of collagen gels [6]: inhibited FN-induced chemotaxis and contraction of collagen gels | Collagen deposition, α-SMA staining and mRNA expression [7]: inhibited collagen deposition, α-smooth muscle actin (α-SMA) staining, and mRNA expression

COc1ccc([C@]2(C#N)CC[C@@H](C(=O)O)CC2)cc1OC1CCCC1 [cilomilast]
Late-stage lung fibrosis and collagen content (bleomycin mice [8]): inhibit late-stage lung fibrosis and tended to reduce collagen content | TGF-β1 and collagen type (Col) 1A1 expression (bleomycin mice [8]): no effect | FN-induced chemotaxis and contraction of collagen gels [6]: inhibited FN-induced chemotaxis and contraction of collagen gels

COC(=O)c1ccc2c(c1)NC(=O)/C2=C(\Nc1ccc(N(C)C(=O)CN2CCN(C)CC2)cc1)c1ccccc1 [nintedanib]
Effect on FVC decline (patients with IPF [9]): can only reduce the decline in FVC | Most prominent side effects (patients with IPF [10]): gastrointestinal events, particularly diarrhea, nausea, vomiting, abdominal pain, decreased appetite and a decreased body weight

CCOc1cc([C@@H](CS(C)(=O)=O)N2Cc3cccc(NC(=O)C4CC4)c3C2=O)ccc1OC [CC-11050]
Pulmonary damage and fibrosis (tuberculosis model): inhibited

[O-][S@+]1CCc2nc(N3CCC(c4ncc(Cl)cn4)CC3)nc(NC3(CO)CCC3)c21 [Comp. of Form. III]
Not completed observation period: Death, % (IPF patients [11]; AF-group): 2.0% | Not completed planned treatment period (prematurely discontinued trial medication), % (IPF patients [11]; AF-group): 20.4% | Not completed treatment period: Adverse Event, % (IPF patients [11]; AF-group): 20.4% | Not completed observation period: Death, % (IPF patients [11]; Non-AF-group): 2.1% | Not completed planned treatment period (prematurely discontinued trial medication), % (IPF patients [11]; Non-AF-group): 10.4% | Not completed treatment period: Adverse Event, % (IPF patients [11]; Non-AF-group): 6.3% | PDE4 subtype preference (PDE4 B subtype): inhibit preferentially the PDE4 B subtype | AE: Infections and infestations (IPF patients [12]; [26]): 6 (23.1) n (%) | Serious AEs: Results in Death, % (IPF patients [12]; [26]): 0% | AE: Infections and infestations (IPF patients [12]; [27]): 1 (4.3) n (%) | Serious AEs: Results in Death, % (IPF patients [12]; [27]): 4.3% | AE: Infections and infestations (IPF patients [12]; AF-group, 18 mg b.i.d.): 7 (14.3) n (%) | Patients with AE resulting in death (IPF patients [12]; AF-group, 18 mg b.i.d.): 1 (2.0) n (%) | SAE: General disorders and administration side conditions, fatal events (IPF patients [12]; AF-group, 18 mg b.i.d., bracketed value marked * (fatal events)): [1 (2.1)]* n (%) | SAE: Vasculitis (IPF patients [12]; AF-group, 18 mg b.i.d., fatal event): 1 (2.0)* n (%) | AE: Infections and infestations (IPF patients [12]; Non-AF-group, 18 mg b.i.d.): 7 (14.6) n (%) | Patients with AE resulting in death (IPF patients [12]; Non-AF-group, 18 mg b.i.d.): 1 (2.1) n (%) | SAE: Infections and Infestations (IPF patients [12]; Non-AF-group, 18 mg b.i.d.): 1 (2.1) n (%) | SAE: Covid-19 pneumonia (IPF patients [12]; Non-AF-group, 18 mg b.i.d., fatal event): 1 (2.1)* n (%) | AE: Infections and infestations (IPF patients [12]; [28]): 14 (14.4) n (%) | Patients with AE resulting in death (IPF patients [12]; [28]): 2 (2.1) n (%) | SAE: Covid-19 pneumonia (IPF patients [12]; [28]): 1 (1.0) n (%) | SAE: Infections and Infestations (IPF patients [12]; [28]): 1 (1.0) n (%) | Patients who experienced an AE resulting in death (IPF patients [12]; active agent group, all, one Covid-19 pneumonitis, one unconfirmed vasculitis): 2 patients | Effect on fibroblast proliferation (human lung fibroblasts): synergistic overadditive effect | Moderate cases of diarrhoea (IPF patients [13]): 2.1% | Severe case of diarrhoea (IPF patients [13]): 1.0%

O=C(Nc1c(Cl)cncc1Cl)c1ccc(OC(F)F)c(OCC2CC2)c1 [roflumilast]
Right ventricular hypertrophy and vascular remodeling (pulmonary arteries) ([14]; in vivo): positively influenced | Fibrosis, hydroxyproline content and mRNA expression in lung extracts ([14]; lung extracts): inhibited histologically assessed fibrosis, hydroxyproline content | Activity in preventive and therapeutic protocols ([14]; oral): active both in preventive and in therapeutic protocols in a dose-dependent manner | Levels of the amino acids glycine and proline (bleomycin mice [15]): lowered | Lung glutathione and plasma tetrahydrobiopterin (bleomycin mice [15]): increased | Liver fibrosis, hydroxyproline deposition, TGF-β1 expression [16]: inhibited diethylnitrosamine-induced liver fibrosis, hydroxyproline deposition, and TGF-β1 expression | TGF-β1-induced CTGF mRNA, α-SMA protein expression and FN [17]: inhibition | TGF-β-induced mRNA expression of collagen α1, CTGF, and FN [18]: inhibited | Fibrosis, collagen deposition, hydroxyproline, TGF-β1, cell infiltration, IL-6 and IL-1β mRNA ([19]; mouse, in vivo): inhibited fibrosis, collagen deposition, hydroxyproline and TGF-β1 content, cell infiltration, and expression of mRNA for IL-6 and IL-1β | Lung fibrosis ([19]; oral): attenuated | Lung hydroxyproline content and mRNA expression of TNF-α, FN, CTGF ([20]; mouse, in vivo): lowered lung hydroxyproline content and mRNA expression of TNF-α, fibronectin (FN), and CTGF | Potency relative to pirfenidone and nintedanib ([20]; therapeutic regimen): therapeutically equipotent to pirfenidone and nintedanib

CCOc1cc([C@@H](CS(C)(=O)=O)N2C(=O)c3cccc(NC(C)=O)c3C2=O)ccc1OC [apremilast]
Fibrosis in colon, collagen deposition, fibrosis-related gene expression [21]: inhibited fibrosis in colon, collagen deposition, and the expression of genes related to fibrosis | Skin fibrosis (skin fibrosis): inhibited

COc1ccc(C(=O)Nc2c(Cl)cncc2Cl)cc1OC1CCCC1 [piclamilast]
TGF-β-induced fibroblast-to-myofibroblast conversion (α-SMA expression) [22]: inhibited | IL-1β plus bFGF-stimulated fibroblast proliferation [23]: inhibition of IL-1β plus bFGF-stimulated fibroblast proliferation

O=C(Nc1c(Cl)c[n+]([O-])cc1Cl)c1ccc(OC(F)F)c(OCC2CC2)c1 [roflumilast N-oxide]
ICAM-1 and eotaxin release, proliferation, α-SMA, CTGF, FN mRNA [24]: inhibit intercellular adhesion molecule-1 and cotaxin release stimulated by TNF-α | NHLF responses (collagen synthesis, proliferation, ROS and F2-isoprostane formation, NADPH oxidase 4 expression) [25]: inhibited

Cc1ccc(=O)n(-c2ccccc2)c1 [pirfenidone]
Effect on FVC decline (patients with IPF [9]): can only reduce the decline in FVC | Most prominent side effects (patients with IPF [10]): gastrointestinal events, particularly diarrhea, nausea, vomiting, abdominal pain, decreased appetite and a decreased body weight
